{"source": "patent US8889639B2", "about": "“Compositions and methods for modulating PGC-1β to treat lipid-related diseases and disorders” (Dana-Farber Cancer Institute, Inc., priority 2004, dated 2014)", "key": {"PGC-1β": {"test_system": "PGC-1β", "assay": "Free fatty acid treatment of primary hepatocytes, PGC-1β mRNA by real-time PCR", "format": "cell-based, mouse", "conditions": "400 μM fatty acid, 4 hours", "excerpt": "FIGS. 1A-D depict the induction of PGC-1β expression by dietary intake of saturated fats. In particular, FIG. 1A depicts a cluster analysis of liver gene expression in response to high-fat feeding. FIG. 1A exemplifies genes involved in hepatic lipogenesis that are induced more than 1.8-fold in response to high-fat feeding. A representative probe set was used in generating the tree in the event multiple probe sets were available for a single gene. SREBP1c and PGC-1β were included in this lipogenic cluster. FIG. 1B depicts the real-time PCR analysis of total liver RNA from mice fed a high-fat diet for 1 day (hatched box) or 2 days (filled box). Relative mRNA abundance was calculated by normalization to the control chow values (open box); N=4;*: p<0.01. FIG. 1C depicts the real-time PCR analysis of total liver RNA from mice fed a control diet containing 0.07% cholesterol (open box) or a diet containing 2% cholesterol for 1 day (hatched box) or 2 days (filled box). Values were normalized to those from mice fed the control diet; N=4;*: p<0.02. FIG. 1D depicts the regulation of PGC-1β expression by free fatty acids in isolated hepatocytes. Primary hepatocytes were treated with 400 μM of various fatty acids for 4 hours. Total RNA was isolated and analyzed by realtime PCR using primers specific for […] and PGC-1β (open box); *: p<0.01.\nPrimary hepatocytes were isolated following perfusion of whole liver first with perfusion buffer (Hank's Balanced Saline, HBSS) and then a collagenase solution (HBSS with 1% BSA and 0.05% collagenase). Dispersed cells were resuspended and seeded onto collagen-coated plates in DMEM supplemented with 10% FBS in the presence of 1 mM sodium pyruvate, 1 μM dexamethasone and 50 nM insulin. The cells were subsequently maintained in DMEM supplemented with 0.1% BSA and 1 mM sodium pyruvate for 24 hours before treatments. Free fatty acids were dissolved in ethanol as 100 mM stock solutions for further dilution in DMEM supplemented with 0.5% BSA to a final concentration of 400 μM. Hepatocytes were treated for 4 hours before RNA isolation and analysis.\n(§1) Total RNA was isolated from liver or cultured hepatocytes using Trizol reagent (Invitrogen™). For real-time PCR analysis, cDNA was synthesized by reverse transcription using random primers and subjected to PCR amplification with genespecific primers in the presence of Cybergreen (Biorad™). Relative abundance of mRNA was calculated after normalization to 18S ribosomal RNA. For hybridization, 20 μg of total RNA was resolved on a formaldehyde gel, transferred to nylon membrane and hybridized with 32P-labeled gene-specific probes. Hybridization to ribosomal protein 36B4 was included as loading control."}, "PGC-1α": {"test_system": "PGC-1α", "assay": "Free fatty acid treatment of primary hepatocytes, PGC-1α mRNA by real-time PCR", "format": "cell-based, mouse", "conditions": "400 μM fatty acid, 4 hours", "method": "FIG. 1D depicts the regulation of PGC-1β expression by free fatty acids in isolated hepatocytes. Primary hepatocytes were treated with 400 μM of various fatty acids for 4 hours. Total RNA was isolated and analyzed by realtime PCR using primers specific for PGC-1β (filled box) and PGC-1β (open box); *: p<0.01.\nTotal RNA was isolated from liver or cultured hepatocytes using Trizol reagent (Invitrogen™). […] Relative abundance of mRNA was calculated after normalization to 18S ribosomal RNA."}, "G6Pase promoter": {"test_system": "G6Pase promoter", "assay": "G6Pase -1200 luc reporter with PGC-1α and HNF4α and PGC-1β RNAi constructs in hepatoma cells", "format": "cell-based, mouse", "excerpt": "(§2) FIGS. 7A-H illustrate the requirement for PGC-1β in SREBP-mediated transcription. In particular, FIG. 7A depicts knockdown of PGC-1β protein levels by RNAi constructs. Cultured 293 cells were transiently transfected with PGC-1β expression plasmid (f-PGC-1β) in the presence of RNAi constructs or a vector control. Transfected cells were harvested for immunoblotting using a monoclonal antibody against the Flag epitope. Both RNAi constructs decrease PGC-1β protein levels compared to the vector control. FIGS. 7 B-E depict hepatoma cells that were transiently transfected with FAS—700 luc (B-C), G6Pase −1200 luc (D) or 4×LXRE-luc (E) in combination with plasmids. For RNAi, either a vector control or RNAi constructs directed toward PGC-1β were included in the transfection experiments. Luciferase activity was measured 48 hours after transfection. FIG. 7F depicts knockdown of PGC-1β protein by adenoviral expression of RNAi. H2.35 hepatoma cells were infected with Ad-GFP or Ad-RNAi for two days and then infected with Ad-PGC-1β. Total lysates were prepared for immunoblotting analysis using antibodies raised against PGC-1β. […] Total RNA was isolated from infected cells and analyzed by real-time PCR using primers specific for the genes. […] Relative SREBP1c expression was determined by real-time PCR analysis and normalized to 18S rRNA. […]"}, "LXRα": {"test_system": "LXRα", "assay": "4×LXRE-luc reporter in H2.35 hepatoma cells", "format": "cell-based, mouse", "conditions": "reporter containing multimerized LXR responsive elements, RNAi cotransfection", "procedure": "FIG. 6A-E illustrate the coactivation of LXRα by PGC-1α and PGC-1β. In particular, FIG. 6A depicts H2.35 hepatoma cells that were transiently transfected with 4×LXRE-luc in combination with plasmids. Transfected cells were treated with either vehicle DMSO (open box) or 10 μM of the LXR agonist T0901317 (filled box) for 24 hours before luciferase assay. FIG. 6B depicts H2.35 hepatoma cells that were transiently transfected with wild-type ABCA1 promoter reporter plasmid-(ABCA1-luc) or a mutant lacking the LXRE (ABCA1 ΔLXRE-luc) in combination with plasmids. Transfected cells were treated with vehicle or T0901317 as described in FIG. 6A. FIG. 6C depicts CHIP analysis on LXR target genes. H2.35 cells were infected with adenoviruses expressing GFP, flag-PGC-1α or flag-PGC-1β. Cells were treated with 10 μM of T0901317 for 3 hours before harvesting. PCR was performed on input or precipitated DNA using primers as indicated FIG. 6D depicts the interaction between LXRα and the N-termini of the PGC-1β proteins. […]\nFIGS. 7A-H illustrate the requirement for PGC-1β in SREBP-mediated transcription. […] Luciferase activity was measured 48 hours after transfection. […] Total RNA was isolated from infected cells and analyzed by real-time PCR using primers specific for the genes. […] Relative SREBP1c expression was determined by real-time PCR analysis and normalized to 18S rRNA. […]"}, "SREBP2 and SREBP1a": {"test_system": "SREBP2 and SREBP1a", "assay": "FAS -700 luc reporter with SREBP2 and SREBP1a and PGC-1β RNAi constructs in hepatoma cells", "format": "cell-based, mouse", "conditions": "FAS promoter reporter", "excerpt": "as §2"}, "hepatic gene expression": {"test_system": "hepatic gene expression", "assay": "High-cholesterol feeding, liver gene expression by real-time PCR", "format": "in vivo, mouse", "conditions": "diet containing 2% cholesterol vs 0.07% control", "procedure": "Animals were fed a standard rodent chow and housed in a controlled environment with twelve-hour light and dark cycles. For high-fat feeding, three-month old male C57/B16J mice were switched to a diet containing 58% fat-derived calorie (D12331, Research Diets™) for 24 or 48 hours. For high-cholesterol feeding, two groups of mice were fed a base diet supplemented with either 0.07% or 2% cholesterol for 24 or 48 hours. Liver was dissected and immediately frozen for RNA isolation. The feeding experiments were repeated three times with four mice per group for each dietary treatment.\nas §1\nTo examine whether dietary cholesterol had any impact on the expression of SREBPs and PGC-1β mice were fed a control diet containing 0.07% cholesterol or a similar diet containing 2% cholesterol. […] This induction of the genetic program of hepatic lipogenesis following acute intake of a high saturated fat diet was not previously observed."}}, "data": [{"molecule": "CC/C=C\\C/C=C\\C/C=C\\C/C=C\\C/C=C\\CCCC(=O)O", "note": "[EPA]", "values": [{"measurement": "PGC-1β expression", "setting": "PGC-1β", "result": "only slightly induce"}]}, {"molecule": "CCCCCCCC/C=C/CCCCCCCC(=O)O", "note": "[elaidic acid]", "values": [{"measurement": "expression of PGC-1α", "setting": "PGC-1α", "result": 3.2, "unit": "fold"}]}, {"molecule": "5′-GTACGGAACTGCATAAGCA-3′ (expressed or natural sequence; the letters are possibly those of the target site) [SEQ ID NO:61, PGC-1β RNAi construct in pSUPER-retro vector under the H1-RNA promoter]", "values": [{"measurement": "regulation of G6Pase promoter activity by PGC-1α and HNF4α", "setting": "G6Pase promoter", "result": "little or no effect"}, {"measurement": "LXRα/RXRα transcriptional activity", "setting": "LXRα", "result": "do not alter"}, {"measurement": "SREBP transcriptional activity with SREBP2 and SREBP1a", "setting": "SREBP2 and SREBP1a", "result": "very similar reduction"}]}, {"molecule": "CCCCC/C=C\\C/C=C\\C/C=C\\C/C=C\\CCCC(=O)O", "note": "[arachidonic acid]", "values": [{"measurement": "PGC-1β expression", "setting": "PGC-1β", "result": "only slightly induce"}]}, {"molecule": "CCCCCC/C=C/CCCCCCCCCC(=O)O", "note": "[trans-vaccenic acid]", "values": [{"measurement": "expression of PGC-1α", "setting": "PGC-1α", "result": 3.2, "unit": "fold"}]}, {"molecule": "CC(C)CCC[C@@H](C)[C@H]1CC[C@H]2[C@@H]3CC=C4C[C@@H](O)CC[C@]4(C)[C@H]3CC[C@]12C", "note": "[cholesterol]", "values": [{"measurement": "SREBP1c mRNA", "setting": "hepatic gene expression", "result": "slightly increased"}, {"measurement": "expression of PGC-1β", "setting": "hepatic gene expression", "result": "not altered"}, {"measurement": "hepatic expression of mRNA encoding SREBP2, along with HMGCoA reductase", "setting": "hepatic gene expression", "result": "suppresses"}, {"measurement": "mRNA level of FAS, SCD-1 and glucose kinase (GK)", "setting": "hepatic gene expression", "result": "remains largely unchanged"}]}, {"molecule": "CCCCCCCCCCCCCCCCCC(=O)O", "note": "[stearic acid]", "values": [{"measurement": "PGC-1β mRNA", "setting": "PGC-1β", "result": 2.2, "unit": "fold"}]}, {"molecule": "5′-GATATCCTCTGTGATGTTA-3′ (expressed or natural sequence) [SEQ ID NO 60, PGC-1β RNAi construct in pSUPER-retro vector under the H1-RNA promoter]", "values": [{"measurement": "regulation of G6Pase promoter activity by PGC-1α and HNF4α", "setting": "G6Pase promoter", "result": "little or no effect"}, {"measurement": "LXRα/RXRα transcriptional activity", "setting": "LXRα", "result": "do not alter"}, {"measurement": "SREBP transcriptional activity with SREBP2 and SREBP1a", "setting": "SREBP2 and SREBP1a", "result": "very similar reduction"}]}, {"molecule": "CCCCC/C=C\\C/C=C\\CCCCCCCC(=O)O", "note": "[linoleic acid]", "values": [{"measurement": "PGC-1β expression", "setting": "PGC-1β", "result": "only slightly induce"}]}, {"molecule": "CCCCCCCC/C=C\\CCCCCCCC(=O)O", "note": "[oleic acid]", "values": [{"measurement": "PGC-1β expression", "setting": "PGC-1β", "result": "only slightly induce"}]}]}
